Literature values as cited in patent US6846809B2, “PEI: DNA vector formulations for in vitro and in vivo gene delivery” (Board of Regents, The University of Texas System, priority 2000, dated 2005).
Counter-ions that a name gives are not always drawn. Like-named read-outs stand apart in the source and are kept apart here. *1 amine or outer side, *2 acyl side, *3 side chain or, on linkers, in order; H or OH if unused. Where a SMILES comes first, the peptide text is derived from it. Bridges are numbered along the chain shown (N, C = ends). Roman numbers before positions name the chains, in order. [ ]: non-standard residue; d: D form. Actinocin(9to1) = Cc1c2oc3c(C)ccc(C(=O)[*:1])c3nc-2c(C(=O)[*:2])c(N)c1=O; NMeV = CN[C@H](C(=O)O)C(C)C; Sar = CNCC(=O)O

How the values were obtained:
[1] = system: chronic myelogenous leukemia; details: previously untreated
multiple myeloma = details: oral administration
[2] = system: Hodgkin's Disease, testicular tumors, squamous cell cancers
[3] = mouse, in vivo
certain animal tumors = details: in vivo

O=C(O)CCCc1ccc(N(CCCl)CCCl)cc1 [Chlorambucil, 4-[bis(2-chlorethyl)amino] benzenebutanoic acid]
oral / gastrointestinal absorption (human, in vivo): rapidly and completely absorbed | terminal half-life (plasma): about 1.5 hours | time to peak plasma levels (single oral doses of about 0.6 mg/kg to about 1.2 mg/kg): within one hour

COc1cccc2c1C(=O)c1c(O)c3c(c(O)c1C2=O)C[C@@](O)([C@H](C)O)C[C@@H]3O[C@H]1C[C@H](N)[C@H](O)[C@H](C)O1 [daunorubicinol]
half-life (human, in vivo): about 27 hours

COc1cccc2c1C(=O)c1c(O)c3c(c(O)c1C2=O)C[C@@](O)(C(C)=O)C[C@@H]3O[C@H]1C[C@H](N)[C@H](O)[C@H](C)O1 [Daunorubicin, 5,12-Naphthacenedione, (8S-cis)-8-acetyl-10-[(3-amino-2,3,6-trideoxy-a-L-lyxo-hexanopyranosyl)oxy]-7,8,9,10-tetrahydro-6,8,11-trihydroxy-10-methoxy-, hydrochloride]
elimination half-life (human, in vivo): about 19 hours | fraction secreted into the bile (human, in vivo): about 40% | half-life of distribution (human, in vivo): 45 min | oral / gastrointestinal absorption (human, in vivo): poor

CS(=O)(=O)OCCCCOS(C)(=O)=O [Busulfan, 1,4-butanediol dimethanesulfonate]
adults obtaining hematologic remission [1]: Approximately 90%

O=NN(CCCl)C(=O)NC1CCCCC1 [Lomustine, 1-(2-chloro-ethyl)-3-cyclohexyl-1 nitrosourea]
serum half-life of the metabolites (human, in vivo): 16 hours to about 2 days | radioactivity excreted as degradation products within 24 hours (oral radioactive drug, about 30 mg/m^2 to 100 mg/m^2): about half

COc1cccc2c1C(=O)c1c(O)c3c(c(O)c1C2=O)C[C@@](O)(C(=O)CO)C[C@@H]3O[C@H]1C[C@H](N)[C@H](O)[C@H](C)O1 [Doxorubicin, 5,12-Naphthacenedione, (8s-cis)-10-[(3-amino-2,3,6--trideoxy-a-L-lyxo-hexopyranosyl)oxy]-7,8,9,10-tetrahydro-6,8,11-trihydroxy-8-(hydroxyacetyl)-1-methoxy-hydrochloride]
elimination half-life (human, in vivo): about 30 hours | fraction of dose excreted in the urine (human, in vivo): a few percent

CC[C@]1(O)C[C@H]2CN(CCc3c([nH]c4ccccc34)[C@@](C(=O)OC)(c3cc4c(cc3OC)N(C=O)[C@H]3[C@@](O)(C(=O)OC)[C@H](OC(C)=O)[C@]5(CC)C=CCN6CC[C@]43[C@@H]65)C2)C1 [Vincristine]
distribution into blood cells (human, in vivo): extensively concentrated in platelets

N[C@@H](Cc1ccc(N(CCCl)CCCl)cc1)C(=O)O [Melphalan, 4-[bis(2-chloroethyl)amino]-L-phenylalanine]
patients showing a favorable response (multiple myeloma): about one third to one half

CO[C@@]12[C@H](COC(N)=O)C3=C(C(=O)C(C)=C(N)C3=O)N1C[C@@H]1N[C@@H]12 [Mitomycin]
time required to reduce the serum concentration by about 50% (30 mg bolus injection): 17 min | fraction of dose excreted in the urine (human, in vivo): Approximately 10%

Bleomycin
time to improvement ([2]; Hodgkin's Disease and testicular tumors): ≤ 2 weeks | time to improvement ([2]; squamous cell cancers): ≤ 3 weeks | concentrations in hematopoietic tissue / bone marrow [3]: low concentrations | concentrations in skin, lungs, kidneys, peritoneum, and lymphatics [3]: high concentrations | fraction of dose excreted in the urine (human, in vivo): 60-70%

N[C@H](Cc1ccc(N(CCCl)CCCl)cc1)C(=O)O [medphalan]
activity compared with the L-isomer (certain animal tumors): less active against certain animal tumors

O.O=P1(N(CCCl)CCCl)NCCCO1 (centres unmarked) [Cyclophosphamide, 2H-1,3,2-Oxazaphosphorin-2-amine, N,N-bis(2-chloroethyl)tetrahydro-, 2-oxide, monohydrate]
stability in the gastrointestinal tract (human, in vivo): stable in the gastrointestinal tract | local tolerance (oral and parental routes): does not cause local vesication, necrosis, phlebitis or even pain

CC[C@]1(O)C[C@@H]2CN(CCc3c([nH]c4ccccc34)[C@@](C(=O)OC)(c3cc4c(cc3OC)N(C)[C@H]3[C@@](O)(C(=O)OC)[C@H](OC(C)=O)[C@]5(CC)C=CCN6CC[C@]43[C@@H]65)C2)C1 [Vinblastine]
fraction of dose recovered in the feces (after biliary excretion): about 10% | distribution into blood cells (human, in vivo): extensively concentrated in platelets | fraction of dose excreted in the urine (human, in vivo): Approximately 15%

Cc1c2oc3c(C)ccc(C(=O)N[C@@H]4C(=O)N[C@H](C(C)C)C(=O)N5CCC[C@H]5C(=O)N(C)CC(=O)N(C)[C@@H](C(C)C)C(=O)O[C@@H]4C)c3nc-2c(C(=O)N[C@@H]2C(=O)N[C@H](C(C)C)C(=O)N3CCC[C@H]3C(=O)N(C)CC(=O)N(C)[C@@H](C(C)C)C(=O)O[C@@H]2C)c(N)c1=O [Actinomycin D] (I: T[dV]P[Sar][NMeV] / II: T[dV]P[Sar][NMeV]; ester I:1-I:C, II:1-II:C; linker I:N-II:N via Actinocin(9to1))
blood-brain barrier passage (human, in vivo): does not pass the blood-brain barrier | fraction of dose excreted in the urine (human, in vivo): 10% | fraction of dose excreted intact into the bile (human, in vivo): Half of the dose | half-life (human, in vivo): about 36 hours
